Source: article PMC4331650 (Biochimica et Biophysica Acta, 2014)
Positions count from the first letter of the chain named. Like-named read-outs stand apart in the source and are kept apart here.

Legend:
rat CLC-K1 = conditions: HEK293 cells; all concentrations tested, from 0.3 to 2000 μM; cited from earlier work
F256A CLC-Ka = target: T1, F256A CLC-Ka (Homo sapiens, UniProt P51800, F256A); assay type: cell-based; conditions: 200 μM NFA, 60 mV
T1 sequence (P51800 1-687 F256A): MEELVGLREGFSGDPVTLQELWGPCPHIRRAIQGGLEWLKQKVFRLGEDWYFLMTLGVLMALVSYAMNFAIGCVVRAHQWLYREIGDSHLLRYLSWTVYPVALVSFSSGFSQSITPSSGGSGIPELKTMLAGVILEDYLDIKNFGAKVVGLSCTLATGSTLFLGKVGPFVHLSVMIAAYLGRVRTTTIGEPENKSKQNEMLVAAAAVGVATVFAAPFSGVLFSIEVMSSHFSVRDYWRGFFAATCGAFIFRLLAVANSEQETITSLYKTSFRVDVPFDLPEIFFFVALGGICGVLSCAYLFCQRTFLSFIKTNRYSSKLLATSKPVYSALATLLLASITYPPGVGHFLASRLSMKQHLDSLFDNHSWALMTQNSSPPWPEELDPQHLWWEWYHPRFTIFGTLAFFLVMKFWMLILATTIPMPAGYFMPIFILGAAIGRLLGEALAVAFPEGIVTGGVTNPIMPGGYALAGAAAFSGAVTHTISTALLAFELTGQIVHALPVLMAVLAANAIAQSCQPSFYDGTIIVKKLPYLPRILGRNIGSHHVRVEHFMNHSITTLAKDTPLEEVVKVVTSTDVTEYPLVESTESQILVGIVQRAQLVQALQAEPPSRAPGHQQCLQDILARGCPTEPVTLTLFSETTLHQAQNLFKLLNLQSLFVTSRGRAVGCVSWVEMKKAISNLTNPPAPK
T1 sequence (Q8WZ55 1-320 Y98A partner): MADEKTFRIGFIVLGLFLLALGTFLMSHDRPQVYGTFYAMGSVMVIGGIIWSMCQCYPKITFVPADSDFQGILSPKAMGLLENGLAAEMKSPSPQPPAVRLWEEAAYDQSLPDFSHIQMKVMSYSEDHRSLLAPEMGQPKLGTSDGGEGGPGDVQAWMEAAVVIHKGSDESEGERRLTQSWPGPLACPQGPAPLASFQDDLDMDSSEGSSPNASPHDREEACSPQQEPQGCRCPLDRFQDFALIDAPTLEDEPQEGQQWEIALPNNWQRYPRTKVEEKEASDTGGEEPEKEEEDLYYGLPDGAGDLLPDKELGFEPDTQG

WT CLC-Ka = target: T2, WT CLC-Ka (Homo sapiens, UniProt P51800); conditions: Xenopus oocytes, cited from earlier work
T2 sequence (P51800 1-687): T1 sequence (P51800 1-687 F256A) with A256F
T2 sequence (Q8WZ55 1-320 Y98A partner): T1 sequence (Q8WZ55 1-320 Y98A partner)

CLC-K1 without barttin = target: T3, CLC-K1 without barttin (Rattus norvegicus, UniProt Q06393); experiment: NFA effect on WT CLC-K1 without barttin, voltage clamp in Xenopus oocytes; assay type: cell-based
T3 sequence (Q06393 1-687): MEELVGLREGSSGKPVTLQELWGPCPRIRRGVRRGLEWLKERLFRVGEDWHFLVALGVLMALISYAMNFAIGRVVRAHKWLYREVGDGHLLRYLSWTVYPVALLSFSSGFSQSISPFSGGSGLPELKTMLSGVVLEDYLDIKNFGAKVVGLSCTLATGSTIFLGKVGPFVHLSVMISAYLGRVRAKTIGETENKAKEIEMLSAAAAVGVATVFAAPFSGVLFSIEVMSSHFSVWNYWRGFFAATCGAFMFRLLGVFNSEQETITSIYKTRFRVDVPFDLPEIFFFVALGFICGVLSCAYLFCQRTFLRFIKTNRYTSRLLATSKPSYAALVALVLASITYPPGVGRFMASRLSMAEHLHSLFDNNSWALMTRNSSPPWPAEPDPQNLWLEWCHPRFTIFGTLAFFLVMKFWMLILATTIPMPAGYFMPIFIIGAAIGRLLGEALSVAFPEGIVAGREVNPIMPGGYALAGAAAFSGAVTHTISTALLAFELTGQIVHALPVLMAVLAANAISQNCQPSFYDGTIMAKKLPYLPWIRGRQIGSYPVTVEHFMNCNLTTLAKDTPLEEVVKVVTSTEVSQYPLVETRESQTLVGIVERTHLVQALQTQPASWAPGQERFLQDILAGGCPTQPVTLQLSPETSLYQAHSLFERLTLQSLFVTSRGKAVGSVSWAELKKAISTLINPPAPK

## O=C(O)c1cccnc1Nc1cccc(C(F)(F)F)c1 [NFA, niflumic acid]
Rat CLC-K1
  effect of NFA on currents: inhibited
F256A CLC-Ka; SD, n = 5 patches
  average current increase: 39 +/− 13
F256A CLC-Ka; n = 3
  single channel current in NFA (average): 1.75 ± 0.10 pA
F256A CLC-Ka; patch of Fig. 4
  distance of Gaussian components of the amplitude histogram in NFA: 1.8 pA
F256A CLC-Ka; the single patch shown in Fig. 4
  increase of mean current in the patch: about 53 fold
WT CLC-Ka; [NFA]ext higher than 0.5 mM
  effect on CLC-Ka currents: block
WT CLC-Ka; [NFA]ext ≤ 0.5 mM
  effect on CLC-Ka currents: increases
CLC-K1 without barttin; 10 μM NFA
  currents relative to control conditions: about 80%
CLC-K1 without barttin; 200 μM NFA
  currents relative to control conditions: ~45%
